Among the data in patent US20250019377A1 (JACOBIO PHARMACEUTICALS CO., LTD, priority 2021, published 2025) are IC50 values, retold here.

Assay [1] relates to AsPC-1 cells (K-Ras G12D). Put plainly: 2D cell growth inhibition assay, AsPC-1. The following applies: Homo sapiens, ASPC1, 144 h, AsPC-1, K-Ras G12D, 6 days, absolute IC50. The class given is cell-based.
In assay [2] the target is T1, K-Ras G12V (Homo sapiens, UniProt P01116, G12V). As to the kind of experiment: SOS1 catalyzed nucleotide exchange assay (GDP form K-Ras), K-Ras G12V. To be noted: read-out: K-Ras G12V GDP Biochemical Activity (IC50).
For the next assay, the system named is SW620 cells (K-Ras G12V). Put plainly: 2D cell growth inhibition assay, SW620. The class given is cell-based. The following applies: Homo sapiens, SW-620, 144 h, 6 days, absolute IC50.
A further assay relates to AGS cells (K-Ras G12D). As to the kind of experiment: 2D cell growth inhibition assay, AGS. In kind it is cell-based. The following applies: Homo sapiens, 144 h, 6 days, absolute IC50.
Assay [3] relates to p-ERK in SW620 cells (K-Ras G12V). As to the kind of experiment: Phospho-ERK1/2(THR202/TYR204) HTRF assay, SW620. In kind it is cell-based. The following applies: Homo sapiens, SW-620, 2 h, 2 hours incubation. Background: Time-resolved FRET reads energy transfer from a long-lived donor to a nearby acceptor.
Assay [4] addresses T1, K-Ras G12V. As to the kind of experiment: biochemical.
In assay [5] the test system is p-ERK in AGS cells (K-Ras G12D). As to the kind of experiment: Phospho-ERK1/2(THR202/TYR204) HTRF assay, AGS. In kind it is cell-based. The following applies: Homo sapiens, 2 h, 2 hours incubation.
A further assay has as its target K-Ras WT (Homo sapiens, UniProt P01116). Put plainly: SOS1 catalyzed nucleotide exchange assay (GDP form K-Ras), K-Ras WT. To be noted: read-out: K-Ras WT GDP Biochemical Activity (IC50).

K-Ras WT, sequence (P01116 1-169 isoform P01116-2): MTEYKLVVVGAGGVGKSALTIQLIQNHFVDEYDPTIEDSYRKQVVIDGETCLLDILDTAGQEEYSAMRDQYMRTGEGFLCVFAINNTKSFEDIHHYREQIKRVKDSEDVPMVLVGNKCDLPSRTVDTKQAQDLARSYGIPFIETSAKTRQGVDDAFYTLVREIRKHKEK
T1 sequence (P01116 1-169 isoform P01116-2 G12V): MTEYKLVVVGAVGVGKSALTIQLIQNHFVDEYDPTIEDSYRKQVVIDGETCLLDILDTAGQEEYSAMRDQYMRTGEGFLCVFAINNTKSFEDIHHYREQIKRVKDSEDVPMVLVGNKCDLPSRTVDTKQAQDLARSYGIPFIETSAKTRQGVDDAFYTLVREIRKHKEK

One may read the IC50 as the midpoint of a concentration-inhibition curve. As to `C#Cc1c(F)ccc2cc(O)cc(-c3ncc4c(N5CCOCC(F)(F)C5)nc(OC[C@@]56CCCN5C[C@H](F)C6)nc4c3F)c12` [Compound 18, 4-(4-(6,6-difluoro-1,4-oxazepan-4-yl)-8-fluoro-2-(((2R,7aS)-2-fluorotetrahydro-1H-pyrrolizin-7a(5H)-yl)methoxy)pyrido[4,3-d]pyrimidin-7-yl)-5-ethynyl-6-fluoronaphthalen-2-ol trifluoroacetic acid], the IC50 was 95.7 nM in assay [1]; 1.41 nM on K-Ras G12V [2]; 5.68 nM in the assay with SW620 cells (K-Ras G12V); 7.96 nM with AGS cells (K-Ras G12D); 2.1 nM in assay [3]; 107 nM at K-Ras G12V [4]. The same compound came in with an IC50 in assay [5] of 5.99 nM.
With `C#Cc1c(F)ccc2cc(O)cc(-c3ncc4c(N5CCOC/C(=C/C)C5)nc(OC[C@@]56CCCN5C[C@H](F)C6)nc4c3F)c12` [Compound 124, 4-(4-((E)-6-ethylidene-1,4-oxazepan-4-yl)-8-fluoro-2-(((2R,7aS)-2-fluorotetrahydro-1H-pyrrolizin-7a(5H)-yl)methoxy)pyrido [4,3-d]pyrimidin-7-yl)-5-ethynyl-6-fluoro-naphthalen-2-ol], the IC50 was 5.02 nM at K-Ras WT; 784 nM in assay [1]; 2.57 nM at K-Ras G12V [2]; 45.7 nM with SW620 cells (K-Ras G12V); 80.8 nM with AGS cells (K-Ras G12D); 21.8 nM in assay [3]. Besides, the IC50 against K-Ras G12V [4] amounted to 805 nM; in assay [5], 34.2 nM.
As to `C#Cc1c(F)ccc2cc(O)cc(-c3ncc4c(N5CCOCCC5C)nc(OC[C@@]56CCCN5C[C@H](F)C6)nc4c3F)c12` (stereo partly drawn) [Compound 22, 5-ethynyl-6-fluoro-4-(8-fluoro-2-(((2R,7aS)-2-fluorotetrahydro-1H-pyrrolizin-7a(5H)-yl)methoxy)-4-(5-methyl-1,4-oxazepan-4-yl)pyrido[4,3-d]pyrimidin-7-yl)naphthalen-2-ol trifluoroacetic acid], the IC50 at K-Ras WT came to 4.05 nM; in assay [1] it was 782 nM; at K-Ras G12V [2], 3.2 nM; in the assay on SW620 cells (K-Ras G12V), 64.3 nM; in the assay on AGS cells (K-Ras G12D), 175 nM; in assay [3], 13.2 nM. Further, the IC50 at K-Ras G12V [4] amounted to 1440 nM; in assay [5], 70.7 nM.
On to `Oc1cc(-c2ncc3c(N4CCCOCC4)nc(OC[C@@]45CCCN4C[C@H](F)C5)nc3c2F)c2c(F)c(F)ccc2c1` [Compound 40, 5,6-difluoro-4-(8-fluoro-2-(((2R,7aS)-2-fluorotetrahydro-1H-pyrrolizin-7a(5H)-yl)methoxy)-4-(1,4-oxazepan-4-yl)pyrido[4,3-d]pyrimidin-7-yl)naphthalen-2-ol trifluoroacetic acid], for which the IC50 stood at 91.3 nM in assay [1]; 1.94 nM at K-Ras G12V [2]; 24.8 nM with SW620 cells (K-Ras G12V); 9.24 nM in the assay with AGS cells (K-Ras G12D); 14.1 nM in assay [3]; 124 nM on K-Ras G12V [4]. The compound further yielded an IC50 in assay [5] of 5.68 nM.
For `C#Cc1c(F)ccc2cc(O)cc(-c3ncc4c(N5CCOCC(N(C)C)C5)nc(OC[C@@]56CCCN5C[C@H](F)C6)nc4c3F)c12` (stereo partly drawn) [Compound 26, 4-(4-(6-(dimethylamino)-1,4-oxazepan-4-yl)-8-fluoro-2-(((2R,7aS)-2-fluorotetrahydro-1H-pyrrolizin-7a(5H)-yl)methoxy)pyrido[4,3-d]pyrimidin-7-yl)-5-ethynyl-6-fluoronaphthalen-2-ol], the figures for the IC50 on K-Ras WT, on K-Ras G12V [2] and against K-Ras G12V [4] were 4.72 nM, 5.77 nM and 4150 nM, respectively.
Take `C#Cc1c(F)ccc2cc(O)cc(-c3nc(SC)c4c(N5CCCOCC5)nc(OC[C@@]56CCCN5C[C@H](F)C6)nc4c3F)c12` [Compound 47, 5-ethynyl-6-fluoro-4-(8-fluoro-2-(((2R,7aS)-2-fluorotetrahydro-1H-pyrrolizin-7a(5H)-yl)methoxy)-5-(methylthio)-4-(1,4-oxazepan-4-yl)pyrido[4,3-d]pyrimidin-7-yl)naphthalen-2-ol trifluoroacetic acid]: the IC50 stood at 106 nM in assay [1]; 4.38 nM on K-Ras G12V [2]; 41.6 nM in the assay on SW620 cells (K-Ras G12V); 51.7 nM in the assay with AGS cells (K-Ras G12D); 40.9 nM in assay [3]; 152 nM against K-Ras G12V [4]. Moreover, half-maximal inhibition in assay [5] (IC50) was put at 17.7 nM.
As for `C#Cc1c(F)ccc2cc(O)cc(-c3ncc4c(N5CC(F)(F)COCC5C)nc(OC[C@@]56CCCN5C[C@H](F)C6)nc4c3F)c12` (stereo partly drawn) [Compound 105, 4-(4-(6,6-difluoro-3-methyl-1,4-oxazepan-4-yl)-8-fluoro-2-(((2R,7aS)-2-fluorotetra-hydro-1H-pyrrolizin-7a(5H)-yl)methoxy)pyrido[4,3-d]pyrimidin-7-yl)-5-ethynyl-6-fluoronaphthalen-2-ol], the IC50 in assay [1] came to 326 nM; at K-Ras G12V [2] it was 2.08 nM; in the assay on SW620 cells (K-Ras G12V), 104 nM; with AGS cells (K-Ras G12D), 53.6 nM; in assay [3], 34.8 nM; on K-Ras G12V [4], 378 nM. In assay [5], this compound had a half-maximal inhibitory concentration (IC50) of 23 nM.
Turning to `C#Cc1c(F)ccc2cc(O)cc(-c3nc(CO)c4c(N5CCCOCC5)nc(OC[C@@]56CCCN5C[C@H](F)C6)nc4c3F)c12` [Compound 36, 5-ethynyl-6-fluoro-4-(8-fluoro-2-(((2R,7aS)-2-fluorotetrahydro-1H-pyrrolizin-7a(5H)-yl)methoxy)-5-(hydroxymethyl)-4-(1,4-oxazepan-4-yl)pyrido[4,3-d]pyrimidin-7-yl)naphthalen-2-ol trifluoroacetic acid], the IC50 in assay [1] was 734 nM; on K-Ras G12V [2], 7.96 nM; in the assay with SW620 cells (K-Ras G12V) it was 112 nM; with AGS cells (K-Ras G12D) it was 37.3 nM; in assay [3], 48.8 nM; against K-Ras G12V [4], 267 nM. The same compound displayed a 50% inhibitory concentration (IC50) in assay [5] of 12.4 nM.
Turning to `C#Cc1c(F)ccc2cc(O)cc(-c3ncc4c(N5[C@H]6COC[C@@H](C)[C@@H]5C6)nc(OC[C@@]56CCCN5C[C@H](F)C6)nc4c3F)c12` [Compound 111, 5-ethynyl-6-fluoro-4-(8-fluoro-2-(((2R,7aS)-2-fluorotetrahydro-1H-pyrrolizin-7a(5H)-yl)methoxy)-4-((1R,5S,6S)-5-methyl-3-oxa-7-azabicyclo[4.1.1]octan-7-yl)pyrido [4,3-d]pyrimidin-7-yl)naphthalen-2-ol], the IC50 in assay [1] was 390 nM; at K-Ras G12V [2], 4.21 nM; in the assay on SW620 cells (K-Ras G12V), 73.8 nM; with AGS cells (K-Ras G12D), 86 nM; in assay [3], 84 nM; on K-Ras G12V [4], over 1000 nM. In assay [5], this compound had an IC50 of 17.4 nM.
Take `C#Cc1c(F)ccc2cc(O)cc(-c3ncc4c(N5CCCOC6CC65)nc(OC[C@@H]5CCCN5C)nc4c3F)c12` (stereo partly drawn) [Compound 113, 4-(4-(2-oxa-6-azabicyclo[5.1.0]octan-6-yl)-8-fluoro-2-(((S)-1-methylpyrrolidin-2-yl)methoxy)pyrido[4,3-d]pyrimidin-7-yl)-5-ethynyl-6-fluoronaphthalen-2-ol]: the IC50 in assay [1] was 121 nM; at K-Ras G12V [2], 1.66 nM; with SW620 cells (K-Ras G12V), 22.4 nM; in the assay with AGS cells (K-Ras G12D) it was 9.76 nM; in assay [3], 10.4 nM; on K-Ras G12V [4], 29 nM. The compound also had an IC50 in assay [5] of 1.83 nM.
`C#Cc1c(F)ccc2cc(O)cc(-c3nc(C(F)F)c4c(N5CCCOCC5)nc(OC[C@@]56CCCN5C[C@H](F)C6)nc4c3F)c12` [Compound 34, 4-(5-(difluoromethyl)-8-fluoro-2-(((2R,7aS)-2-fluorotetrahydro-1H-pyrrolizin-7a(5H)-yl)methoxy)-4-(1,4-oxazepan-4-yl)pyrido[4,3-d]pyrimidin-7-yl)-5-ethynyl-6-fluoronaphthalen-2-ol trifluoroacetic acid]: the IC50 stood at 323 nM in assay [1]; 2.12 nM at K-Ras G12V [2]; 205 nM in the assay on SW620 cells (K-Ras G12V); 75.4 nM in the assay with AGS cells (K-Ras G12D); 40 nM in assay [3]; 483 nM against K-Ras G12V [4]. The IC50 in assay [5] came out at 19.4 nM.
`C#Cc1c(F)ccc2cc(O)cc(-c3nc(C)c4c(N5CCCOCC5)nc(OC[C@@]56CCCN5C[C@H](F)C6)nc4c3F)c12` [Compound 121, 5-ethynyl-6-fluoro-4-(8-fluoro-2-(((2R,7aS)-2-fluorotetrahydro-1H-pyrrolizin-7a(5H)-yl)methoxy)-5-methyl-4-(1,4-oxazepan-4-yl)pyrido[4,3-d]pyrimidin-7-yl) naphthalen-2-ol]: the IC50 in assay [1] is 320 nM; on K-Ras G12V [2], 3.01 nM; in the assay with SW620 cells (K-Ras G12V) it was 91 nM; with AGS cells (K-Ras G12D), 25.4 nM; in assay [3] it was 34.8 nM; on K-Ras G12V [4], 140 nM. The same compound registered an IC50 in assay [5] of 5.47 nM.
For `C#Cc1c(F)ccc2cc(O)cc(-c3ncc4c(N5CCCO[C@@H]6C[C@@H]65)nc(OCC5(CN6CCOCC6)CC5)nc4c3F)c12` (single isomer, unassigned) [Compound 28B], the IC50 was found to be 18.2 nM in assay [1]; 2.31 nM on K-Ras G12V [2]; 6.63 nM in the assay on SW620 cells (K-Ras G12V); 2.23 nM with AGS cells (K-Ras G12D); 3.36 nM in assay [3]; 29.2 nM against K-Ras G12V [4]. In assay [5], this compound had an IC50 of 1.33 nM.
Turning to `C#Cc1c(F)ccc2cc(O)cc(-c3ncc4c(N5CCCOCC5)nc(OCC56CCCN5CC(N(C)C)C6)nc4c3F)c12` (centres unmarked) [Compound 83], the half-maximal inhibitory concentration (IC50) at K-Ras WT was determined as 8.04 nM; on K-Ras G12V [2], 3.11 nM; on K-Ras G12V [4] it was 343 nM.
